± gives the expanded uncertainty stated by the source.
Key:
[1] = 83 kPa, Liquid; for speed of sound: Frequency=3 MHz, Single path-length method; for mass density: Vibrating tube method
[2] = molar heat capacity at constant pressure; conditions: 83 kPa, Liquid, DSC

CCCCCCCCC(=O)OCC(COC(=O)CCCCCCCC)(COC(=O)CCCCCCCC)COC(=O)CCCCCCCC [pentaerythritol tetranonanoate]
Conditions | mass density [kg/m3] | molar heat capacity at constant pressure [J/K/mol] | speed of sound [m/s]
[1], 283.15 K | 961.49 ± 13 | – | 1438.9 ± 7.2
[1], 288.15 K | 957.85 ± 13 | – | 1421.7 ± 7.2
[1], 293.15 K | 954.2 ± 13 | – | 1404.7 ± 7.2
[1], 298.15 K | 950.58 ± 13 | – | 1387.9 ± 7.2
[1], 303.15 K | 946.97 ± 13 | – | 1371.5 ± 7.2
[1], 308.15 K | 943.37 ± 13 | – | 1355.2 ± 7.2
[1], 313.15 K | 939.77 ± 13 | – | 1339.1 ± 7.2
[1], 318.15 K | 936.18 ± 12 | – | 1323.2 ± 7.2
[1], 323.15 K | 932.6 ± 12 | – | 1307.5 ± 7.2
[1], 328.15 K | 929.02 ± 12 | – | 1292 ± 7.2
[1], 333.15 K | 925.45 ± 12 | – | 1276.6 ± 7.2
[1], 338.15 K | 921.88 ± 12 | – | 1261.4 ± 7.2
[1], 343.15 K | 918.32 ± 12 | – | 1246.4 ± 7.2
[2], 313.13 K | – | 1352.3 ± 54 | –
[2], 314.13 K | – | 1354.3 ± 54 | –
[2], 315.14 K | – | 1355.7 ± 54 | –
[2], 316.13 K | – | 1357.8 ± 54 | –
[2], 317.14 K | – | 1359.9 ± 55 | –
[2], 318.13 K | – | 1362 ± 54 | –
[2], 319.13 K | – | 1363.4 ± 54 | –
[2], 320.14 K | – | 1365.5 ± 55 | –
[2], 321.13 K | – | 1367.6 ± 55 | –
[2], 322.13 K | – | 1369 ± 55 | –
[2], 323.14 K | – | 1371.1 ± 55 | –
[2], 324.13 K | – | 1373.2 ± 55 | –
[2], 325.13 K | – | 1374.6 ± 55 | –
[2], 326.13 K | – | 1376.6 ± 56 | –
[2], 327.13 K | – | 1378.7 ± 56 | –
[2], 328.14 K | – | 1380.8 ± 55 | –
[2], 329.14 K | – | 1382.9 ± 56 | –
[2], 330.13 K | – | 1384.3 ± 55 | –
[2], 331.13 K | – | 1386.4 ± 55 | –
[2], 332.13 K | – | 1388.5 ± 56 | –
[2], 333.13 K | – | 1390.6 ± 56 | –
[2], 334.13 K | – | 1392.7 ± 56 | –
[2], 335.13 K | – | 1394.8 ± 56 | –
[2], 336.14 K | – | 1396.9 ± 56 | –
[2], 337.13 K | – | 1399 ± 56 | –
[2], 338.13 K | – | 1401 ± 56 | –
[2], 339.13 K | – | 1403.1 ± 56 | –
[2], 340.13 K | – | 1405.2 ± 56 | –
[2], 341.14 K | – | 1406.6 ± 56 | –
[2], 342.14 K | – | 1408.7 ± 56 | –
[2], 343.13 K | – | 1410.8 ± 56 | –
[2], 344.13 K | – | 1412.9 ± 56 | –
[2], 345.14 K | – | 1415 ± 56 | –
[2], 346.13 K | – | 1417.1 ± 56 | –
[2], 347.13 K | – | 1419.2 ± 56 | –
[2], 348.13 K | – | 1421.3 ± 56 | –
[2], 349.13 K | – | 1423.4 ± 56 | –
[2], 350.14 K | – | 1425.4 ± 56 | –
[2], 351.13 K | – | 1427.5 ± 56 | –
[2], 352.13 K | – | 1429.6 ± 56 | –
[2], 353.14 K | – | 1431.7 ± 57 | –
[2], 354.13 K | – | 1433.8 ± 57 | –
[2], 355.14 K | – | 1435.9 ± 57 | –
[2], 356.13 K | – | 1438 ± 57 | –
[2], 357.13 K | – | 1440.1 ± 57 | –
[2], 358.13 K | – | 1442.2 ± 57 | –
[2], 359.13 K | – | 1444.3 ± 57 | –
[2], 360.13 K | – | 1446.4 ± 57 | –
[2], 361.13 K | – | 1448.4 ± 57 | –
[2], 362.13 K | – | 1450.5 ± 57 | –
[2], 363.13 K | – | 1452.6 ± 57 | –
[2], 364.13 K | – | 1454.7 ± 58 | –
[2], 365.13 K | – | 1456.8 ± 58 | –
[2], 366.13 K | – | 1458.9 ± 58 | –
[2], 367.13 K | – | 1461 ± 58 | –
[2], 368.13 K | – | 1463.1 ± 58 | –
[2], 369.13 K | – | 1465.2 ± 58 | –
[2], 370.13 K | – | 1467.3 ± 58 | –
[2], 371.13 K | – | 1469.4 ± 58 | –
[2], 372.13 K | – | 1471.4 ± 58 | –
[2], 373.13 K | – | 1473.5 ± 58 | –
[2], 374.14 K | – | 1475.6 ± 59 | –
[2], 375.14 K | – | 1477.7 ± 59 | –
[2], 376.13 K | – | 1479.8 ± 59 | –
[2], 377.13 K | – | 1481.9 ± 59 | –
[2], 378.13 K | – | 1484 ± 59 | –
[2], 379.13 K | – | 1486.1 ± 59 | –
[2], 380.14 K | – | 1488.2 ± 59 | –
[2], 381.13 K | – | 1491 ± 59 | –
[2], 382.13 K | – | 1493.1 ± 59 | –
[2], 383.13 K | – | 1495.1 ± 59 | –
[2], 384.13 K | – | 1497.2 ± 59 | –
[2], 385.13 K | – | 1499.3 ± 59 | –
[2], 386.13 K | – | 1501.4 ± 59 | –
[2], 387.13 K | – | 1503.5 ± 59 | –
[2], 388.13 K | – | 1505.6 ± 59 | –
[2], 389.13 K | – | 1507.7 ± 59 | –
[2], 390.13 K | – | 1509.8 ± 59 | –
[2], 391.13 K | – | 1511.9 ± 59 | –
[2], 392.13 K | – | 1514 ± 59 | –
[2], 393.13 K | – | 1516.1 ± 59 | –
[2], 394.13 K | – | 1518.1 ± 59 | –
[2], 395.14 K | – | 1520.2 ± 60 | –
[2], 396.13 K | – | 1523 ± 60 | –
[2], 397.13 K | – | 1525.1 ± 60 | –
[2], 398.13 K | – | 1527.2 ± 60 | –
[2], 399.13 K | – | 1529.3 ± 60 | –
[2], 400.13 K | – | 1531.4 ± 60 | –
[2], 401.13 K | – | 1533.5 ± 60 | –
[2], 402.14 K | – | 1535.6 ± 60 | –
[2], 403.13 K | – | 1537.7 ± 60 | –
[2], 404.14 K | – | 1539.8 ± 60 | –
[2], 405.13 K | – | 1541.8 ± 60 | –
[2], 406.13 K | – | 1543.9 ± 60 | –
[2], 407.13 K | – | 1546 ± 60 | –
[2], 408.13 K | – | 1548.1 ± 60 | –
[2], 409.13 K | – | 1550.9 ± 61 | –
[2], 410.14 K | – | 1553 ± 61 | –
[2], 411.13 K | – | 1554.4 ± 61 | –
[2], 412.14 K | – | 1557.2 ± 61 | –

From the NIST ThermoML archive (doi:10.1021/acs.jced.8b00358)
